From the supplement of paper PMC10307832

Tests used:
Test in all cases: relative viability (nuclei count vs DMSO), 5 days (fraction); higher = more cells survive
NCI-H2023 = system: NCI-H2023
Summary of the method: (§1)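 Medians of duplicate plates are given as relative viability. That measure is the nuclei count in treated wells divided by the count in vehicle wells. Counts were taken on 4× images of lung cancer cell lines in 1536-well plates, 5 days after pin-tool dosing the day after seeding with one drug alone or a fixed anchor-drug dose plus five library-drug doses (not always all listed) in √10 steps.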

UMC-11 = system: UMC-11
Summary of the method: as §1

NCI-H1395 = system: NCI-H1395
Summary of the method: as §1

NCI-H1563 = system: NCI-H1563
Summary of the method: as §1

NCI-H1915 = system: NCI-H1915
Summary of the method: as §1

CAL-12T = system: CAL-12T
Summary of the method: as §1

NCI-H1734 = system: NCI-H1734
Summary of the method: as §1

NCI-H2405 = system: NCI-H2405
Summary of the method: as §1

HCC-44 = system: HCC-44
Summary of the method: as §1

A-427 = system: A-427
Summary of the method: as §1

SW 1573 = system: SW 1573
Summary of the method: as §1

EPLC-272H = system: EPLC-272H
Summary of the method: as §1

LCLC-97TM1 = system: LCLC-97TM1
Summary of the method: as §1

NCI-H2347 = system: NCI-H2347
Summary of the method: as §1

NCI-H1975 = system: NCI-H1975
Summary of the method: as §1

COR-L 105 = system: COR-L 105
Summary of the method: as §1

NCI-H520 = system: NCI-H520
Summary of the method: as §1

NCI-H838 = system: NCI-H838
Summary of the method: as §1

HCC-15 = system: HCC-15
Summary of the method: as §1

NCI-H1792 = system: NCI-H1792
Summary of the method: as §1

LC-2-ad = system: LC-2-ad
Summary of the method: as §1

Molecule Cc1csc(=NC2CCCCC2)n1/N=C/c1ccc(O)c(O)c1O [MIM1] + Cc1nc(NC(=O)N2CCC[C@H]2C(N)=O)sc1-c1ccnc(C(C)(C)C(F)(F)F)c1 [Alpelisib] (partner 2 µM) has a relative viability (NCI-H2023; first compound 0.2 µM) of 0.564, a relative viability (NCI-H2023; first compound 0.6325 µM) of 0.594 and a relative viability (NCI-H2023; first compound 2 µM) of 0.526. The relative viability (NCI-H2023; first compound 6.325 µM) was 0.368, the relative viability (NCI-H2023; first compound 20 µM) was 0.328 and the relative viability (UMC-11; first compound 0.2 µM) was 0.952. For the same molecule, the relative viability (UMC-11; first compound 0.6325 µM) was 1.04, the relative viability (UMC-11; first compound 2 µM) was 0.962 and the relative viability (UMC-11; first compound 6.325 µM) was 0.69. The relative viability (UMC-11; first compound 20 µM) was 0.224, the relative viability (NCI-H1395; first compound 0.2 µM) was 0.947 and the relative viability (NCI-H1395; first compound 0.6325 µM) was 1.06. For the same molecule, the relative viability (NCI-H1395; first compound 2 µM) was 0.911, the relative viability (NCI-H1395; first compound 6.325 µM) was 0.537 and the relative viability (NCI-H1395; first compound 20 µM) was 0.407. For the same molecule, the relative viability (NCI-H1563; first compound 0.2 µM) was 0.95, the relative viability (NCI-H1563; first compound 0.6325 µM) was 1.04 and the relative viability (NCI-H1563; first compound 2 µM) was 0.873. It also gave a relative viability (NCI-H1563; first compound 6.325 µM) of 0.802, a relative viability (NCI-H1563; first compound 20 µM) of 0.657 and a relative viability (NCI-H1915; first compound 0.2 µM) of 1.14. The relative viability (NCI-H1915; first compound 0.6325 µM) was 1.04, the relative viability (NCI-H1915; first compound 2 µM) was 1.02 and the relative viability (NCI-H1915; first compound 6.325 µM) was 0.773. It also gave a relative viability (NCI-H1915; first compound 20 µM) of 0.277, a relative viability (CAL-12T; first compound 0.2 µM) of 1.14 and a relative viability (CAL-12T; first compound 0.6325 µM) of 1.36. The relative viability (CAL-12T; first compound 2 µM) was 1.24, the relative viability (CAL-12T; first compound 6.325 µM) was 0.997 and the relative viability (CAL-12T; first compound 20 µM) was 0.973. The relative viability (NCI-H1734; first compound 0.2 µM) was 0.738, the relative viability (NCI-H1734; first compound 0.6325 µM) was 0.655 and the relative viability (NCI-H1734; first compound 2 µM) was 0.696. For the same molecule, the relative viability (NCI-H1734; first compound 6.325 µM) was 0.655, the relative viability (NCI-H1734; first compound 20 µM) was 0.38 and the relative viability (NCI-H2405; first compound 0.2 µM) was 0.787. It also gave a relative viability (NCI-H2405; first compound 0.6325 µM) of 0.85, a relative viability (NCI-H2405; first compound 2 µM) of 0.739 and a relative viability (NCI-H2405; first compound 6.325 µM) of 0.76. It also gave a relative viability (NCI-H2405; first compound 20 µM) of 0.644, a relative viability (HCC-44; first compound 0.2 µM) of 0.835 and a relative viability (HCC-44; first compound 0.6325 µM) of 0.838. It also gave a relative viability (HCC-44; first compound 2 µM) of 0.577, a relative viability (HCC-44; first compound 6.325 µM) of 0.498 and a relative viability (HCC-44; first compound 20 µM) of 0.137. For the same molecule, the relative viability (A-427; first compound 0.2 µM) was 1.09, the relative viability (A-427; first compound 0.6325 µM) was 1.06 and the relative viability (A-427; first compound 2 µM) was 1.15. The relative viability (A-427; first compound 6.325 µM) was 1.06, the relative viability (A-427; first compound 20 µM) was 0.335 and the relative viability (SW 1573; first compound 0.2 µM) was 0.809. The relative viability (SW 1573; first compound 0.6325 µM) was 0.758, the relative viability (SW 1573; first compound 2 µM) was 0.808 and the relative viability (SW 1573; first compound 6.325 µM) was 0.639. It also gave a relative viability (SW 1573; first compound 20 µM) of 0.618, a relative viability (EPLC-272H; first compound 0.2 µM) of 0.968 and a relative viability (EPLC-272H; first compound 0.6325 µM) of 0.769. For the same molecule, the relative viability (EPLC-272H; first compound 2 µM) was 0.973, the relative viability (EPLC-272H; first compound 6.325 µM) was 0.958 and the relative viability (EPLC-272H; first compound 20 µM) was 0.294. The relative viability (LCLC-97TM1; first compound 0.2 µM) was 0.255, the relative viability (LCLC-97TM1; first compound 0.6325 µM) was 0.258 and the relative viability (LCLC-97TM1; first compound 2 µM) was 0.207. For the same molecule, the relative viability (LCLC-97TM1; first compound 6.325 µM) was 0.26, the relative viability (LCLC-97TM1; first compound 20 µM) was 0.129 and the relative viability (NCI-H2347; first compound 0.2 µM) was 1.03. The relative viability (NCI-H2347; first compound 0.6325 µM) was 1.02, the relative viability (NCI-H2347; first compound 2 µM) was 1.13 and the relative viability (NCI-H2347; first compound 6.325 µM) was 0.728. It also gave a relative viability (NCI-H2347; first compound 20 µM) of 0.534, a relative viability (NCI-H1975; first compound 0.2 µM) of 0.63 and a relative viability (NCI-H1975; first compound 0.6325 µM) of 0.624. For the same molecule, the relative viability (NCI-H1975; first compound 2 µM) was 0.569, the relative viability (NCI-H1975; first compound 6.325 µM) was 0.391 and the relative viability (NCI-H1975; first compound 20 µM) was 0.313. For the same molecule, the relative viability (COR-L 105; first compound 0.2 µM) was 0.782, the relative viability (COR-L 105; first compound 0.6325 µM) was 0.971 and the relative viability (COR-L 105; first compound 2 µM) was 0.849. The relative viability (COR-L 105; first compound 6.325 µM) was 0.934, the relative viability (COR-L 105; first compound 20 µM) was 0.966 and the relative viability (NCI-H520; first compound 0.2 µM) was 0.902. The relative viability (NCI-H520; first compound 0.6325 µM) was 0.9, the relative viability (NCI-H520; first compound 2 µM) was 1.19 and the relative viability (NCI-H520; first compound 6.325 µM) was 0.633. For the same molecule, the relative viability (NCI-H520; first compound 20 µM) was 0.41, the relative viability (NCI-H838; first compound 0.2 µM) was 0.974 and the relative viability (NCI-H838; first compound 0.6325 µM) was 1. The relative viability (NCI-H838; first compound 2 µM) was 0.83, the relative viability (NCI-H838; first compound 6.325 µM) was 0.827 and the relative viability (NCI-H838; first compound 20 µM) was 1.09. It also gave a relative viability (HCC-15; first compound 0.2 µM) of 0.989, a relative viability (HCC-15; first compound 0.6325 µM) of 0.838 and a relative viability (HCC-15; first compound 2 µM) of 0.967. It also gave a relative viability (HCC-15; first compound 6.325 µM) of 0.481, a relative viability (HCC-15; first compound 20 µM) of 0.125 and a relative viability (NCI-H1792; first compound 0.2 µM) of 0.67. The relative viability (NCI-H1792; first compound 0.6325 µM) was 0.654, the relative viability (NCI-H1792; first compound 2 µM) was 0.694 and the relative viability (NCI-H1792; first compound 6.325 µM) was 0.433. It also gave a relative viability (NCI-H1792; first compound 20 µM) of 0.599, a relative viability (LC-2-ad; first compound 0.2 µM) of 0.867 and a relative viability (LC-2-ad; first compound 0.6325 µM) of 0.905. It also gave a relative viability (LC-2-ad; first compound 2 µM) of 0.946, a relative viability (LC-2-ad; first compound 6.325 µM) of 0.527 and a relative viability (LC-2-ad; first compound 20 µM) of 0.116.
